Measured values as given in patent US11000033B2, “Ketone or oxime compound, and herbicide” (NISSAN CHEMICAL CORPORATION, priority 2014, dated 2021).

Experiments:
Format in all cases: in vivo
Stellaria media [1] = test: Test Example 5: herbicidal effect by foliage application, plastic box (symbol P); details: 320 g/ha, 3 weeks after application
How it was run: (§1)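 Sowing in sterilized diluvial soil, 14 days' greenhouse growth at 25° C. to 30° C., then uniform small-sprayer foliar application of aqueous emulsion dilution; plants scored three weeks afterwards.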

Abutilon theophrasti [2] = test: Test Example 4: herbicidal effect by soil treatment (symbol M); details: application herbicide amount 320 g/ha
How it was run: (§2)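 Seeds were sown in sterilized diluvial soil, covered with about 1.5 cm of soil, and the soil surface was sprayed with a water-diluted emulsion of the compound at a predetermined rate. Plants grew in a greenhouse at 25° C. to 30° C.; effects were scored visually 3 weeks after application.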

[3] = system: Echinochloa crus-galli var. crus-galli; test: Test Example 5: herbicidal effect by foliage application, plastic box (symbol H); details: 320 g/ha, 3 weeks after application
How it was run: as §1

Abutilon theophrasti [4] = test: Test Example 5: herbicidal effect by foliage application, plastic box (symbol M); details: 320 g/ha, 3 weeks after application
How it was run: as §1

rice plant = test: Test Example 5: effect on crop by foliage application, plastic box (symbol b); details: 320 g/ha, 3 weeks after application
How it was run: (§3)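 Crop and weed seeds sown in spots in sterilized diluvial soil in plastic boxes and covered with about 1.5 cm soil. Plants raised in a greenhouse at 25° C. to 30° C. for foliar application.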

Leptochloa chinensis = test: Test Example 3: herbicidal effect by foliage application, Wagner pot (symbol D); details: application herbicide amount 320 g/ha
How it was run: (§4)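 Plants sown in submerged alluvial soil (water depth 0.1–0.5 cm) in a 25–30 °C greenhouse and grown 14 days. An emulsion of the compound diluted in water to a set herbicide amount was sprayed uniformly on foliage. Effect on each plant scored 3 weeks after application.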

Avena fatua = test: Test Example 5: herbicidal effect by foliage application, plastic box (symbol I); details: 320 g/ha, 3 weeks after application
How it was run: as §1

Amaranthus retroflexus = test: Test Example 4: herbicidal effect by soil treatment (symbol N); details: application herbicide amount 320 g/ha
How it was run: as §2

Apera spica-venti [5] = test: Test Example 5: herbicidal effect by foliage application, plastic box (symbol L); details: 320 g/ha, 3 weeks after application
How it was run: as §1

Digitaria ciliaris = test: Test Example 4: herbicidal effect by soil treatment (symbol F); details: application herbicide amount 320 g/ha
How it was run: as §2

[6] = system: directly sowed rice plant; test: Test Example 3: effect on crop by foliage application, Wagner pot (symbol b); details: application herbicide amount 320 g/ha
How it was run: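 Steps: fill a 1/10000-are Wagner pot with alluvial soil; add water and mix to submerge at 0.1–0.5 cm depth; sow rice plus Echinochloa crus-galli var. crus-galli, Leptochloa chinensis and Cyperus difformis; grow in a 25–30 °C greenhouse.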

transplanted rice plant = test: Test Example 1: effect on crop, application before weed generation in submerged conditions (symbol a); details: application herbicide amount 320 g/ha
How it was run: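 Alluvial soil pots flooded to 4 cm water, sown with Echinochloa oryzacola, Scirpus juncoides and Monochoria vaginalis, then transplanted with 2.5 leaf stage rice seedlings; pre-emergence application. Greenhouse 25° C. to 30° C.; scored 0–5 by herbicidal ratio 3 weeks after application.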

beet = test: Test Example 5: effect on crop by foliage application, plastic box (symbol f); details: 320 g/ha, 3 weeks after application
How it was run: as §3

Setaria viridis [7] = test: Test Example 4: herbicidal effect by soil treatment (symbol G); details: application herbicide amount 320 g/ha
How it was run: as §2

Lolium multiflorum Lam. = test: Test Example 4: herbicidal effect by soil treatment (symbol K); details: application herbicide amount 320 g/ha
How it was run: as §2

Setaria viridis [8] = test: Test Example 5: herbicidal effect by foliage application, plastic box (symbol G); details: 320 g/ha, 3 weeks after application
How it was run: as §1

Apera spica-venti [9] = test: Test Example 4: herbicidal effect by soil treatment (symbol L); details: application herbicide amount 320 g/ha
How it was run: as §2

Galium spurium = test: Test Example 4: herbicidal effect by soil treatment (symbol Q); details: application herbicide amount 320 g/ha
How it was run: as §2

[10] = system: Echinochloa crus-galli var. crus-galli; test: Test Example 3: herbicidal effect by foliage application, Wagner pot (symbol H); details: application herbicide amount 320 g/ha
How it was run: as §4

rapeseed = test: Test Example 5: effect on crop by foliage application, plastic box (symbol g); details: 320 g/ha, 3 weeks after application
How it was run: as §3

Stellaria media [11] = test: Test Example 4: herbicidal effect by soil treatment (symbol P); details: application herbicide amount 320 g/ha
How it was run: as §2

Veronica persica = test: Test Example 4: herbicidal effect by soil treatment (symbol R); details: application herbicide amount 320 g/ha
How it was run: as §2

Chenopodium album = test: Test Example 4: herbicidal effect by soil treatment (symbol O); details: application herbicide amount 320 g/ha
How it was run: as §2

Row | Structure (SMILES) | P: Stellaria media, herbicidal effect grade (Stellaria media [1]) | M (Abutilon theophrasti) herbicidal effect grade (Abutilon theophrasti [2]) | H: Echinochloa crus-galli var. crus-galli, herbicidal effect grade [3] | M: Abutilon theophrasti, herbicidal effect grade (Abutilon theophrasti [4]) | b: directly sowed rice plant, effect on crop grade (rice plant) | herbicidal effect on D (Leptochloa chinensis), grade 0-5 (Leptochloa chinensis) | I: Avena fatua, herbicidal effect grade (Avena fatua) | N (Amaranthus retroflexus) herbicidal effect grade (Amaranthus retroflexus) | L: Apera spica-venti, herbicidal effect grade (Apera spica-venti [5]) | F (Digitaria ciliaris) herbicidal effect grade (Digitaria ciliaris) | effect on crop b (directly sowed rice plant), grade 0-5 [6] | Effect grade on crop, a: transplanted rice plant (transplanted rice plant) | f: beet, effect on crop grade (beet) | G (Setaria viridis) herbicidal effect grade (Setaria viridis [7]) | K (Lolium multiflorum Lam.) herbicidal effect grade (Lolium multiflorum Lam.) | G: Setaria viridis, herbicidal effect grade (Setaria viridis [8]) | L (Apera spica-venti) herbicidal effect grade (Apera spica-venti [9]) | Q (Galium spurium) herbicidal effect grade (Galium spurium) | herbicidal effect on H (Echinochloa crus-galli var. crus-galli), grade 0-5 [10] | g: rapeseed, effect on crop grade (rapeseed) | also measured
1 | CON=C(C)CC1CC(OC(=O)C2CC2)=C(c2c(C)cc(C)cc2C)C1=O (stereo not drawn) [1-015] | 4 (Herbicidal ratio of 70% or higher and lower than 90%) | 5 (Herbicidal ratio of 90% or more (almost completely withered)) | 5 (Herbicidal ratio of 90% or more (almost completely withered)) | 4 (Herbicidal ratio of 70% or higher and lower than 90%) | 5 (Herbicidal ratio of 90% or more (almost completely withered)) | 5 (Herbicidal ratio of 90% or more (almost completely withered)) | 5 (Herbicidal ratio of 90% or more (almost completely withered)) | 5 (Herbicidal ratio of 90% or more (almost completely withered)) | 5 (Herbicidal ratio of 90% or more (almost completely withered)) | 5 (Herbicidal ratio of 90% or more (almost completely withered)) | 5 (Herbicidal ratio of 90% or more (almost completely withered)) | 5 (Herbicidal ratio of 90% or more (almost completely withered)) | 3 (Herbicidal ratio of 40% or higher and lower than 70%) | 3 (Herbicidal ratio of 40% or higher and lower than 70%) | 5 (Herbicidal ratio of 90% or more (almost completely withered)) | 5 (Herbicidal ratio of 90% or more (almost completely withered)) | 5 (Herbicidal ratio of 90% or more (almost completely withered)) | 3 (Herbicidal ratio of 40% or higher and lower than 70%) | 5 (Herbicidal ratio of 90% or more (almost completely withered)) | 4 (Herbicidal ratio of 70% or higher and lower than 90%) | –
2 | CC(CC1CC(O)=C(c2c(C)cc(C)cc2C)C1=O)=NOCc1ccccc1 (stereo not drawn) [1-020] | – | 3 (Herbicidal ratio of 40% or higher and lower than 70%) | 5 (Herbicidal ratio of 90% or more (almost completely withered)) | 3 (Herbicidal ratio of 40% or higher and lower than 70%) | 5 (Herbicidal ratio of 90% or more (almost completely withered)) | 5 (Herbicidal ratio of 90% or more (almost completely withered)) | 4 (Herbicidal ratio of 70% or higher and lower than 90%) | 0 (Herbicidal ratio of 5% or lower (almost no effect)) | 5 (Herbicidal ratio of 90% or more (almost completely withered)) | 5 (Herbicidal ratio of 90% or more (almost completely withered)) | 5 (Herbicidal ratio of 90% or more (almost completely withered)) | 5 (Herbicidal ratio of 90% or more (almost completely withered)) | 3 (Herbicidal ratio of 40% or higher and lower than 70%) | 5 (Herbicidal ratio of 90% or more (almost completely withered)) | 5 (Herbicidal ratio of 90% or more (almost completely withered)) | 5 (Herbicidal ratio of 90% or more (almost completely withered)) | 5 (Herbicidal ratio of 90% or more (almost completely withered)) | 0 (Herbicidal ratio of 5% or lower (almost no effect)) | 5 (Herbicidal ratio of 90% or more (almost completely withered)) | 4 (Herbicidal ratio of 70% or higher and lower than 90%) | P (Stellaria media) herbicidal effect grade (Stellaria media [11]): 0 (Herbicidal ratio of 5% or lower (almost no effect))
3 | CCc1cc(Br)cc(C)c1C1=C(O)CC(C(C(C)=O)C(=O)OC)C1=O (stereo not drawn) [7-001] | – | – | – | – | – | 5 (Herbicidal ratio of 90% or more (almost completely withered)) | – | – | – | – | 2 (Herbicidal ratio of 20% or higher and lower than 40%) | 0 (Herbicidal ratio of 5% or lower (almost no effect)) | – | – | – | – | – | – | 4 (Herbicidal ratio of 70% or higher and lower than 90%) | – | Herbicidal effect grade, M: Abutilon theophrasti (Abutilon theophrasti [2]): 0 (Herbicidal ratio of 5% or lower (almost no effect)); H: Echinochloa crus-galli var. crus-galli, herbicidal effect (criteria of Test Example 1) [3]: 4 (Herbicidal ratio of 70% or higher and lower than 90%); M: Abutilon theophrasti, herbicidal effect (criteria of Test Example 1) (Abutilon theophrasti [4]): 0 (Herbicidal ratio of 5% or lower (almost no effect)); b: directly sowed rice plant, effect on crop (criteria of Test Example 1) (rice plant): 1 (Herbicidal ratio of 5% or higher and lower than 20%); I: Avena fatua, herbicidal effect (criteria of Test Example 1) (Avena fatua): 3 (Herbicidal ratio of 40% or higher and lower than 70%); Herbicidal effect grade, N: Amaranthus retroflexus (Amaranthus retroflexus): 0 (Herbicidal ratio of 5% or lower (almost no effect)); L: Apera spica-venti, herbicidal effect (criteria of Test Example 1) (Apera spica-venti [5]): 3 (Herbicidal ratio of 40% or higher and lower than 70%); Herbicidal effect grade, F: Digitaria ciliaris (Digitaria ciliaris): 5 (Herbicidal ratio of 90% or more (almost completely withered)); f: beet, effect on crop (criteria of Test Example 1) (beet): 0 (Herbicidal ratio of 5% or lower (almost no effect)); Herbicidal effect grade, G: Setaria viridis (Setaria viridis [7]): 4 (Herbicidal ratio of 70% or higher and lower than 90%); Herbicidal effect grade, K: Lolium multiflorum Lam. (Lolium multiflorum Lam.): 5 (Herbicidal ratio of 90% or more (almost completely withered)); G: Setaria viridis, herbicidal effect (criteria of Test Example 1) (Setaria viridis [8]): 3 (Herbicidal ratio of 40% or higher and lower than 70%); Herbicidal effect grade, L: Apera spica-venti (Apera spica-venti [9]): 0 (Herbicidal ratio of 5% or lower (almost no effect)); Herbicidal effect grade, Q: Galium spurium (Galium spurium): 0 (Herbicidal ratio of 5% or lower (almost no effect)); g: rapeseed, effect on crop (criteria of Test Example 1) (rapeseed): 0 (Herbicidal ratio of 5% or lower (almost no effect))
4 | CC(=O)C1CC(O)=C(c2c(C)cc(C)cc2C)C1=O (stereo not drawn) [8-001] | 0 (Herbicidal ratio of 5% or lower (almost no effect)) | – | 1 (Herbicidal ratio of 5% or higher and lower than 20%) | 0 (Herbicidal ratio of 5% or lower (almost no effect)) | 2 (Herbicidal ratio of 20% or higher and lower than 40%) | – | 0 (Herbicidal ratio of 5% or lower (almost no effect)) | – | 0 (Herbicidal ratio of 5% or lower (almost no effect)) | – | – | 0 (Herbicidal ratio of 5% or lower (almost no effect)) | 0 (Herbicidal ratio of 5% or lower (almost no effect)) | – | – | 1 (Herbicidal ratio of 5% or higher and lower than 20%) | – | – | – | 0 (Herbicidal ratio of 5% or lower (almost no effect)) | Herbicidal effect grade, P: Stellaria media (Stellaria media [11]): 0 (Herbicidal ratio of 5% or lower (almost no effect)); Herbicidal effect grade, M: Abutilon theophrasti (Abutilon theophrasti [2]): 0 (Herbicidal ratio of 5% or lower (almost no effect)); D (Leptochloa chinensis) herbicidal effect grade (Leptochloa chinensis; Table 24): 0 (Herbicidal ratio of 5% or lower (almost no effect)); Herbicidal effect grade, N: Amaranthus retroflexus (Amaranthus retroflexus): 0 (Herbicidal ratio of 5% or lower (almost no effect)); Herbicidal effect grade, F: Digitaria ciliaris (Digitaria ciliaris): 0 (Herbicidal ratio of 5% or lower (almost no effect)); Herbicidal effect grade, R: Veronica persica (Veronica persica): 0 (Herbicidal ratio of 5% or lower (almost no effect)); b (directly sowed rice plant) effect on crop grade ([6]; Table 24): 0 (Herbicidal ratio of 5% or lower (almost no effect)); Herbicidal effect grade, O: Chenopodium album (Chenopodium album): 0 (Herbicidal ratio of 5% or lower (almost no effect)); Herbicidal effect grade, G: Setaria viridis (Setaria viridis [7]): 0 (Herbicidal ratio of 5% or lower (almost no effect)); Herbicidal effect grade, K: Lolium multiflorum Lam. (Lolium multiflorum Lam.): 0 (Herbicidal ratio of 5% or lower (almost no effect)); Herbicidal effect grade, L: Apera spica-venti (Apera spica-venti [9]): 0 (Herbicidal ratio of 5% or lower (almost no effect)); H (Echinochloa crus-galli var. crus-galli) herbicidal effect grade ([10]; Table 24): 0 (Herbicidal ratio of 5% or lower (almost no effect))
